Molecules are shown by their SMILES. Values joined by “and” are separate entries in the source; they are usually repeats but may differ in a detail not shown here. Equal entries are not always repeated. Toxic doses and inconclusive results are not listed.

In this experiment the test system is CD2F1 mice, L1210 leukemia ip, survival T/C. Description: NCI In Vivo Anticancer Drug Screen. Data for tumor model L1210 Leukemia (intraperitoneal) in CD2F1 (CDF1) mice. The conditions noted are these: endpoint: mean survival time, higher = longer survival. The essentials:
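Each value reflects a quotient of treated over vehicle control outcomes in mice with a transplanted tumor.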

Where [1] appears, read: dose: 100.0 mg/kg/injection, schedule: Q01DX009 (ip), vehicle: saline with Tween-80.
The mark [2] stands for this setting: dose: 200.0 mg/kg/injection, schedule: Q01DX009 (ip), vehicle: saline with Tween-80.
Setting [3] is: dose: 400.0 mg/kg/injection, schedule: Q01DX009 (ip), vehicle: saline with Tween-80.
Where [4] appears, read: dose: 50.0 mg/kg/injection, schedule: Q01DX009 (ip), vehicle: saline with Tween-80.
Where [5] appears, read: dose: 100.0 mg/kg/injection, schedule: Q04DX003 (ip), vehicle: saline with Tween-80.
Where [6] appears, read: dose: 200.0 mg/kg/injection, schedule: Q04DX003 (ip), vehicle: saline with Tween-80.
[7] abbreviates: dose: 25.0 mg/kg/injection, schedule: Q01DX009 (ip), vehicle: saline with Tween-80.
Where [8] appears, read: dose: 100.0 mg/kg/injection, schedule: Q01DX001 (ip), vehicle: saline with Tween-80.
The mark [9] stands for this setting: dose: 100.0 mg/kg/injection, schedule: Q04DX002 (ip), vehicle: saline with Tween-80.
[10] abbreviates: dose: 200.0 mg/kg/injection, schedule: Q01DX001 (ip), vehicle: saline with Tween-80.
Setting [11] is: dose: 200.0 mg/kg/injection, schedule: Q04DX002 (ip), vehicle: saline with Tween-80.
Where [12] appears, read: dose: 400.0 mg/kg/injection, schedule: Q01DX001 (ip), vehicle: saline with Tween-80.
The mark [13] stands for this setting: dose: 400.0 mg/kg/injection, schedule: Q04DX002 (ip), vehicle: saline with Tween-80.
The mark [14] stands for this setting: dose: 400.0 mg/kg/injection, schedule: Q04DX003 (ip), vehicle: saline with Tween-80.
Where [15] appears, read: dose: 100.0 mg/kg/injection, schedule: Q04DX003 (ip), vehicle: saline.
[16] abbreviates: dose: 200.0 mg/kg/injection, schedule: Q04DX003 (ip), vehicle: saline.

Regarding `CCOC(=O)C(C=O)(CC)C(=O)OCC`, the T/C reads like this: under setting [1], 97 % of control; under setting [2], 94 % of control; under setting [3], 103 % of control.

Consider `O=C(NNc1cccc(Cl)c1)C(O)C(O)C(O)C(O)CO` (centres undefined), for which the T/C is 93 % of control (dose: 50.0 mg/kg/injection, schedule: Q01DX009 (ip), vehicle: saline); 108 % of control (dose: 100.0 mg/kg/injection, schedule: Q01DX009 (ip), vehicle: saline); 96 % of control (dose: 200.0 mg/kg/injection, schedule: Q01DX009 (ip), vehicle: saline).

In the case of `COc1ccc(C2(C(=O)O)CC(C)=C(C)CC2C(=O)O)cc1` (centres undefined), the T/C is, setting by setting: under setting [4], 88 % of control; under setting [1], 93 % of control; under setting [5], 97 % of control; under setting [6], 95 % of control.

As to `CC1(C)N=C(N)N=C(N)N1c1ccc(OCCNS(=O)(=O)c2cccc(S(=O)(=O)F)c2)c(Cl)c1`, the T/C runs as follows: (dose: 12.5 mg/kg/injection, schedule: Q01DX009 (ip), vehicle: saline with Tween-80) 108 % of control; under setting [7], 110 % of control; under setting [4], 117 % of control; under setting [8], 97 % of control; under setting [1], 164 % of control; under setting [9], 97 % of control. Moreover, the T/C under setting [10] is 107 % of control; the T/C under setting [2] is 94 % of control; the T/C under setting [11] was 108 % of control; the T/C under setting [12] was 111 % of control; the T/C under setting [13] was 101 % of control.

On to `CCCCCCCCCCCCCCCCCCCOc1ccc(OCCCCCCCCCCCCCC)cc1`, for which the T/C runs as follows: under setting [8], 86 % of control; under setting [10], 88 % of control; under setting [12], 88 % of control.

Consider `SCC1=NCCN1`, for which the T/C reads like this: (dose: 25.0 mg/kg/injection, schedule: Q04DX002 (ip), vehicle: saline) 103 % of control; (dose: 50.0 mg/kg/injection, schedule: Q04DX002 (ip), vehicle: saline) 98 % of control; (dose: 100.0 mg/kg/injection, schedule: Q04DX002 (ip), vehicle: saline) 93 % of control and 95 % of control.

Regarding `CCC(C)C(NC(=O)OCc1ccccc1)C(=O)ON1C(=O)CCC1=O` (centres undefined), the T/C is, setting by setting: (dose: 100.0 mg/kg/injection, schedule: Q04DX003 (ip), vehicle: saline sonified) 95 % of control; (dose: 200.0 mg/kg/injection, schedule: Q04DX003 (ip), vehicle: saline sonified) 90 % of control; (dose: 400.0 mg/kg/injection, schedule: Q04DX003 (ip), vehicle: saline sonified) 100 % of control.

For the molecule `COc1cc2c(c(OC)c1OC)-c1ccc(SC)c(=O)cc1[C@@H](NC1OC(COC(C)=O)C(OC(C)=O)C(OC(C)=O)C1OC(C)=O)CC2` (some centres undefined), the T/C is 97 % of control (dose: 1.5 mg/kg/injection, schedule: Q01DX009 (ip), vehicle: other); 97 % of control (dose: 3.0 mg/kg/injection, schedule: Q01DX009 (ip), vehicle: other); 97 % of control (dose: 6.0 mg/kg/injection, schedule: Q01DX009 (ip), vehicle: other); 96 % of control (dose: 12.0 mg/kg/injection, schedule: Q01DX009 (ip), vehicle: other); 96 % of control (dose: 24.0 mg/kg/injection, schedule: Q01DX009 (ip), vehicle: other).

On to `CC(CCOc1ccc2ccc(=O)oc2c1)C1=CC(=O)C(C)(C)O1` (centres undefined), for which the T/C runs as follows: (dose: 50.0 mg/kg/injection, schedule: Q01DX001 (ip), vehicle: saline with Tween-80) 113 % of control; under setting [8], 95 % of control; under setting [10], 98 % of control.

`O=C(O)c1c2c(nc3c(Cl)cccc13)-c1ccccc1C2`: the T/C under setting [1] is 102 % of control and the T/C under setting [2] is 107 % of control.

`CCOC(=O)C(C)OC(=O)c1ccccc1` (centres undefined): the T/C runs as follows: under setting [1], 103 % of control; under setting [5], 91 % of control; under setting [2], 105 % of control; under setting [6], 105 % of control; under setting [3], 100 % of control; under setting [14], 103 % of control.

As to `CCOc1ccc(Br)cc1/C=N/NS(=O)(=O)c1ccc(C)cc1`, the T/C was 111 % of control under setting [7], 114 % of control under setting [4] and 113 % of control under setting [1].

`CN(C)c1ccc(/C=C/c2cc[n+](C)cc2)cc1`: the T/C runs as follows: (dose: 4.0 mg/kg/injection, schedule: Q01DX009 (ip), vehicle: saline) 97 % of control; (dose: 8.0 mg/kg/injection, schedule: Q01DX009 (ip), vehicle: saline) 94 % of control.

`O=[P+](O)C(O)c1ccccc1` (centres undefined): the T/C under setting [15] is 108 % of control; the T/C under setting [16] is 111 % of control; the T/C (dose: 400.0 mg/kg/injection, schedule: Q04DX003 (ip), vehicle: saline) is 117 % of control.

On to `CNC(=O)OCC(COc1cc(C)ccc1C(C)C)OC(=O)NC` (centres undefined), for which the T/C under setting [9] is 86 % of control, the T/C under setting [11] is 93 % of control and the T/C under setting [13] is 89 % of control.

Consider `CN(Cc1cnc2nc(N)nc(N)c2n1)c1ccc(C(=O)NC(CCC(=O)NC(CCC(=O)O)C(=O)O)C(=O)O)cc1` (centres undefined), for which the T/C (dose: 2.5 mg/kg/injection, schedule: Q01DX009 (ip), vehicle: sodium bicarbonate) was 165 % of control; the T/C (dose: 5.0 mg/kg/injection, schedule: Q01DX009 (ip), vehicle: sodium bicarbonate) was 119 % of control; the T/C (dose: 10.0 mg/kg/injection, schedule: Q01DX009 (ip), vehicle: sodium bicarbonate) was 89 % of control.

Take `O=Cc1cccc(O)c1O`: the T/C under setting [5] is 96 % of control, the T/C under setting [6] was 102 % of control and the T/C under setting [14] is 103 % of control.

Turning to `CCOC1(c2ccccc2)c2ccccc2C(C)(C)c2ccccc21`, the T/C was 92 % of control under setting [5] and 92 % of control under setting [14].

Turning to `Cc1ccc(NC(=O)Nc2ccc(Nc3ccccc3)cc2)c([N+](=O)[O-])c1`, the T/C (dose: 100.0 mg/kg/injection, schedule: Q01DX009 (ip), vehicle: Klucel (hydroxypropylcellulose) (HPC)) was 89 % of control; the T/C (dose: 200.0 mg/kg/injection, schedule: Q01DX009 (ip), vehicle: Klucel (hydroxypropylcellulose) (HPC)) is 92 % of control; the T/C (dose: 400.0 mg/kg/injection, schedule: Q01DX009 (ip), vehicle: Klucel (hydroxypropylcellulose) (HPC)) was 89 % of control.

As to `COc1ccc(C(C)C(OC(=O)c2ccc([N+](=O)[O-])cc2)c2ccccc2)cc1` (centres undefined), the T/C by setting is: under setting [1], 94 % of control; under setting [5], 88 % of control; under setting [2], 88 % of control; under setting [6], 97 % of control; under setting [3], 103 % of control; under setting [14], 94 % of control.

Take `CN(C)C(=O)OCC[N+](C)(C)CCCCCCCCCC[N+](C)(C)CCOC(=O)N(C)C`: the T/C is 103 % of control (dose: 1.25 mg/kg/injection, schedule: Q04DX003 (ip), vehicle: saline) and 97 % of control (dose: 2.5 mg/kg/injection, schedule: Q04DX003 (ip), vehicle: saline).

For `CCOC(=O)C(C(=O)OCC)[N+](=O)[O-]`, the T/C is, setting by setting: (dose: 50.0 mg/kg/injection, schedule: Q04DX003 (ip), vehicle: saline) 102 % of control; (dose: 100.0 mg/kg/injection, schedule: Q01DX001 (ip), vehicle: saline) 97 % of control; under setting [15], 100 % of control; (dose: 200.0 mg/kg/injection, schedule: Q01DX001 (ip), vehicle: saline) 95 % of control; under setting [16], 105 % of control.

Take `CNC(=S)NC1CCCCC1`: the T/C by setting is: under setting [5], 97 % of control; under setting [6], 100 % of control; under setting [14], 89 % of control.

Take `CCCCCCCCCCCCCCNC(=O)Nc1ccc(Cl)c(Cl)c1`: the T/C (dose: 100.0 mg/kg/injection, schedule: Q04DX003 (ip), vehicle: other) is 89 % of control and the T/C (dose: 200.0 mg/kg/injection, schedule: Q04DX003 (ip), vehicle: other) is 86 % of control.

As to `O=[N+]([O-])c1cccc(N=NN2CCCC2)c1`, the T/C was 101 % of control under setting [1], 92 % of control under setting [2] and 87 % of control under setting [3].

`CNC(=O)Nc1nc2ccc([N+](=O)[O-])cc2[nH]1`: the T/C under setting [5] was 109 % of control, the T/C under setting [6] is 105 % of control and the T/C under setting [14] was 105 % of control.

In the case of `CCC1c2cc(O)c(OC)cc2CCN1C` (centres undefined), where the note is “dose: 75.0 mg/kg/injection, schedule: Q01DX001 (ip), vehicle: saline”, the T/C was 106 % of control.

Turning to `Cc1c[n+]([O-])cc(=O)[nH]1`, the T/C under setting [1] was 97 % of control; the T/C under setting [5] was 96 % of control; the T/C under setting [2] was 97 % of control; the T/C under setting [6] is 100 % of control; the T/C under setting [3] was 95 % of control; the T/C under setting [14] was 100 % of control.

Source of the values: PubChem BioAssay AID256 (DTP/NCI, 2004).
